What all share (format): cell-based
Test [1] addresses T1, Src substrate cortactin (CTTN) (Homo sapiens, UniProt Q14247).
T1 construct: endogenous in cells; host or cells: MCF7
The experiment in a line: In situ competitive profiling in live MCF7 cells (LFQ): CTTN. The settings on record: protein CTTN, 4 h, then 10 µM 24c, n=4. The text has this:
(§1) In our efforts to determine the direct molecular targets of deoxyelephantopin we first performed a gel-based competitive in situ proteomic profiling assay[41] […] While the greater conformational flexibility of probe 24c could potentially lead to more promiscuous target engagement relatively to deoxyelephantopin, it was favoured based on the fact that an alkyne moiety appended to the rigid scaffold of deoxyelephantopin may hinder some of its interactions. MCF7 cells were pretreated with various concentrations of deoxyelephantopin for 4 h, harvested, lysed and the lysates were treated with the fluorogenic probe 24c-Cy3 (10 μM; Supplementary Fig. 10). […] Furthermore, cells were pretreated with 20 μM concentration of deoxyelephantopin or 24c and the proteomic profiles were compared (Fig. 6b, Supplementary Fig. 11). Multiple bands were detected that were equally competed by both DEP and 24c, thus again confirming that 24c can be used as an acceptable clickable analogue of deoxyelephantopin in pulldown assays. Having established the optimal labelling conditions by SDS–PAGE, we next carried out a mass spectrometry-based competitive profiling assay[42] coupled with the method of stable isotope labelling of amino acids in culture (SILAC)[43]. […]
(§2) Figure 6 Proteome-wide identification of deoxyelephantopin targets. […] Quantification was performed using label-free quantification (LFQ) method (n=4). […]

For test [2], the target named is T2, Cystathionine beta-synthase (CBS) (Homo sapiens, UniProt P35520).
T2 construct: endogenous in cells; host or cells: MCF7
Kind of test: In situ competitive profiling in live MCF7 cells (LFQ): CBS. The note with it: protein CBS, 4 h, then 10 µM 24c, n=4.
From the text: as §1, §2

In test [3] the target is T3, FLYWCH family member 2 (FLYWCH2) (Homo sapiens, UniProt Q96CP2).
T3 construct: endogenous in cells; host or cells: MCF7
The experiment in a line: In situ competitive profiling in live MCF7 cells (LFQ): FLYWCH2. The note with it: protein FLYWCH2, 4 h, then 10 µM 24c, n=4.
From the text: as §1, §2

Each structure is given as a SMILES string.

T1 sequence (Q14247 whole entry): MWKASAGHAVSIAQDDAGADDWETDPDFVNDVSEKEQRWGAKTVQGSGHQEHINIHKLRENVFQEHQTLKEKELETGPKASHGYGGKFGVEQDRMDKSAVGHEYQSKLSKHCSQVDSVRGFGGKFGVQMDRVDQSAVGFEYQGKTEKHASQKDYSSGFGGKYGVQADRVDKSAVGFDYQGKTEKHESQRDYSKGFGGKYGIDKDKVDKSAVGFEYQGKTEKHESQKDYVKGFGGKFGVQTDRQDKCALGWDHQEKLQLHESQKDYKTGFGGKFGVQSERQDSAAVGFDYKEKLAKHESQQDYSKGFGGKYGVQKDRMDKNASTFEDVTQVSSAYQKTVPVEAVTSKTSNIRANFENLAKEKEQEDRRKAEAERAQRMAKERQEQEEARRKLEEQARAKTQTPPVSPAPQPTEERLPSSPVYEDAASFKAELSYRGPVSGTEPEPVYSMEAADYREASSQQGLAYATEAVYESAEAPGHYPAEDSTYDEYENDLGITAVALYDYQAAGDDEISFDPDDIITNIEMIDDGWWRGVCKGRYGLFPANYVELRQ
T3 sequence (Q96CP2 whole entry): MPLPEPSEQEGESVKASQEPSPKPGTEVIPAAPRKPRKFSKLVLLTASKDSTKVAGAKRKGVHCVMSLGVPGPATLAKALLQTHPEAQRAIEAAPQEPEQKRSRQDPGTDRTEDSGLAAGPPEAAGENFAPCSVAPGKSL
T2 sequence (P35520 whole entry): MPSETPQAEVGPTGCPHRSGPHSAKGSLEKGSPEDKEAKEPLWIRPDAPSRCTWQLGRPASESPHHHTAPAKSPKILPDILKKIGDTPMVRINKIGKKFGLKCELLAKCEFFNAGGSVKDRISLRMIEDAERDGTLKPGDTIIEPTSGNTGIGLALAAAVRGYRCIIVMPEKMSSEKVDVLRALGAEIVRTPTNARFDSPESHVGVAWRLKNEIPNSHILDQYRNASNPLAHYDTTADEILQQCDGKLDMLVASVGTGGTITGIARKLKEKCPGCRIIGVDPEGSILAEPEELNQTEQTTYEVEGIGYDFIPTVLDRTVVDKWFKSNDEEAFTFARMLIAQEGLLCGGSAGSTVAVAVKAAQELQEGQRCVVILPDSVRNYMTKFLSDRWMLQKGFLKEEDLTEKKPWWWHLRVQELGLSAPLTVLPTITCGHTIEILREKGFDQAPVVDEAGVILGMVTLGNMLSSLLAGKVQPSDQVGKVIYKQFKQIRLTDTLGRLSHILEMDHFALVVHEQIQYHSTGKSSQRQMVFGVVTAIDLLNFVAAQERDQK

Consider `C=C(C)C(=O)O[C@H]1CC2=C[C@@H](C/C(C)=C/[C@H]3OC(=O)C(=C)[C@H]13)OC2=O` [deoxyelephantopin], for which the “LFQ ratio 20 µM Deoxyelephantopin/DMSO with 24c” value in test [1] is given as 0.22; in test [2] it was 0.00; in test [3] it was 0.19.

These data come from article PMC4992173, “Divergent synthesis and identification of the cellular targets of deoxyelephantopins” (Nature Communications, 2016).
